In patent US8541670B2, “Compositions and methods for inhibiting tumor cell growth” (priority 2007, dated 2013):
Where no end group is shown, it is not given here. red fluorescent dye = not defined here

Tests used:
[1] = test system: AKT; experiment: In vivo AKT inhibition in brain after stereotactic injection (immunofluorescence, western blot); set-up: species or system mouse
Protocol: As a specific substrate, the phosphorylation level of GSK-3[…] at Ser-9 was also evaluated. […] The decrease was specific to the AKT phosphorylation site on GSK-3[…] at Ser-9, since a change in the phosphorylation level of GSK-3[…] at Tyr-216 or GSK-3[…] at Tyr-279 was not observed. Moreover, the in vivo reduction of the phosphorylation of AKT substrates was more obvious at the injection site, since a significant change in the phosphorylation of AKT substrates in the frontal cortex or cerebellum between the two hemispheres was not observed. […] To test the specificity/selectivity of ZaTa as the inhibitor of AKT1 versus the other major kinases, a series of in vitro kinase assays was performed at IC50 for AKT1 and at ten times higher concentrations. A panel of the following 32 kinases was first tested in vitro using the active form of each kinase and a specific substrate: AKT2, AKT3, PKA, PKC[…], PKC, PI3K[…], PI3K[…], PI3K, SGK, PAK2, PAK3, SAPK2/p38, Abl, CaMKII, CDK1/cyclinB, CDK5/p35, CK1, CK2, CSK, GSK3[…], GSK3[…], JNK1[…]1, MAPK1, p70S6K, PDGFR[…], PDGFR[…], PDK1, PKG1[…], TrkB, JAK2, JAK3, and Syk. […] However, at ten times higher concentration, ZaTa inhibited AKT2 (63%), PI3K[…] (72%), p70S6K (64%), SGK (73%), PAK3 (83%), JAK3 (79%), TrkB (84%), and Abl (42%). To confirm the in vitro inhibitory effect on these kinases in cells, a cell-based assay was used to determine the effect of labeled ZaTa on the phosphorylation levels of well-known intracellular substrates for each kinase (Zipfel, et al. (2004) Curr. Biol. 14:1222-1231; Wang, et al. (2003) Arch. Biochem. Biophys. 410:7-15; King, et al. (1998) Nature 396:180-183; Rangone, et al. (2004) Eur. J. Neurosci. 19:273-279; Middlemas, et al. (1994) J. Biol. Chem. 269:5458-5466; Huang, et al. (1999) J. Biol. Chem. 274:7870-7878). […] Given that most of the above-listed kinases have no known inhibitor, it is contemplated that the ZaTa could be used at micromolar concentrations in in vitro studies to inhibit the activity of the select kinases.
These different localization patterns of ZaTa within the cell were usually accompanied with redistribution of AKT to the site of ZaTa.
N2a cells were cultured in Dulbecco's Modified Eagle's Medium (DMEM) and OPTI-MEM® media (50% of each; GIBCO-BRL, Gaithersberg, Md.) supplemented with 5% fetal bovine serum (FBS; SIGMA, St. Louis, Mo.), penicillin-streptomycin and L-Glutamine (GIBCO-BRL). Cells (˜1×10^6) or frontal cortex of mouse brain (0.05-0.1 gram) were homogenized in ice cold lysate buffer (0.25 M Tris, pH 7.5) containing protease inhibitors (Protease Inhibitor Cocktail tablets; Boehringer Mannheim, Mannheim, Germany) and phosphatase inhibitors (Phosphatase Inhibitor Cocktails I & II; SIGMA) and lysed through three cycles of freezing in liquid nitrogen and thawing in a 37° C. water bath. Protein concentration was measured using a commercially available protein assay (BIO-RAD, […].) protein assay and spectrometry at […]. Equal amounts of total protein were loaded on 4-12% gradient Bis-Tris gels, separated using the NUPAGE® system (INVITROGEN, Carlsbad, Calif.) and transferred onto nitrocellulose membrane. The membrane was probed with primary and secondary antibodies and signals were detected by chemiluminescence followed by autoradiography.
For immunofluorescence analysis of mouse brain, anaesthetized mice were perfused with PBS-buffered formalin, fixed overnight, placed in PBS, and stored at 4° C. VIBRATOME® sections, 50-μm thick, were cut in the coronal plane from the fronto-striatum brain region. […] The sections were blocked overnight using 2% normal goat sera in PBS with 0.3% TRITON™ X-100 and then incubated for 48 hours in blocking solution with 1:500 dilution of anti-phospho-AKT substrate antibody. Sections were washed four times for 15 minutes in PBS, incubated with blocking solution containing goat anti-rabbit ALEXA®-568 secondary antibody (MOLECULAR PROBES, Eugene, Oreg.) for 48 hours, and washed four times for 15 minutes in PBS. […]

[2] = target: T1, AKT (Homo sapiens, UniProt P31749); experiment: Screen of PKAc peptide library for effect on catalytic activity of AKT; type: biochemical; conditions: single peptide
T1 construct: purchased Upstate Biotechnology
Excerpt: Unlike PKAc and protein kinase C (PKC) for which potent inhibitor peptides are readily available and widely used, inhibitors of AKT are generally lacking (Brazil, et al. (2004) supra). […] Moreover, optimal substrate motifs for AKT have been modified to design AKT inhibitors (Obata, et al. (2000) J. Biol. Chem. 275:36108-36115). Because the full-length PKAc protein inhibited the catalytic activity of AKT, a peptide library based on the human (GENBANK Accession No. NP_002721; SEQ ID NO:1) and bovine (GENBANK Accession No. CAA47627; SEQ ID NO:2) PKAc protein sequences was designed and synthesized. This library contained 96 overlapping peptides (Table 1), covering the full-length protein sequence of human and bovine PKAc from the N- to C-terminus. The library was extensively screened to identify fragments of PKAc that mediated the inhibitory effect of PKAc toward AKT.
These peptides included peptide 49 (SEQ ID NO:56), 53 (SEQ ID NO:60), 62 (SEQ ID NO:69), 63 (SEQ ID NO:70) and 64 (SEQ ID NO:71). Combinations of consecutive overlapping peptide fragments were also assayed for an effect on the catalytic activity of AKT. A significant inhibitory effect was also observed when peptides 25 through 36 were combined (i.e., SEQ ID NOs:32-43), peptides 37 through 48 were combined (i.e., SEQ ID NOs:44-55), peptides 49 through 60 were combined (i.e., SEQ ID NOs:56-67), and peptides 61 through 72 were combined (i.e., SEQ ID NOs:68-79).

T1 sequence (P31749 whole entry): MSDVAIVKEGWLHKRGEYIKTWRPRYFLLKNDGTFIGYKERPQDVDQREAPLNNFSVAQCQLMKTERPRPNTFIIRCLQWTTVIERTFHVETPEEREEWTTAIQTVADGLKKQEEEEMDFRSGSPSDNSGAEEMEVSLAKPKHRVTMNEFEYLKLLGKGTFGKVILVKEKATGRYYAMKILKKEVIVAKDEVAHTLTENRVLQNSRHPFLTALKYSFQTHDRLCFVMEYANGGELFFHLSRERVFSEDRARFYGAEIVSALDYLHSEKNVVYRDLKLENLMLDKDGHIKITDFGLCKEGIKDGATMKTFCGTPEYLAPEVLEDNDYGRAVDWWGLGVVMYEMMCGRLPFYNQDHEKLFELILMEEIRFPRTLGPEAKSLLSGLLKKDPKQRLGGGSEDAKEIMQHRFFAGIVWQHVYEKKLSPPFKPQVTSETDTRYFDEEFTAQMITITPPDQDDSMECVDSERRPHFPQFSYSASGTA

Substance: AKRVKGRTWTLCGTPEY [ZaTa]
- change in phosphorylation of AKT substrates in frontal cortex or cerebellum ([1]; away from striatal injection site, between hemispheres): not observed
- phosphorylation level of AKT substrates in vivo, western blot ([1]; one hour after stereotactic injection): significant decrease
- phosphorylation level of AKT substrates in striatum, immunofluorescence ([1]; stereotactic injection, versus DMSO-injected hemisphere): decrease in the phosphorylation level of AKT substrates
- change in phosphorylation level of GSK-3[…] at Tyr-216 or Tyr-279 ([1]; striatum): not observed
- phosphorylation level of GSK-3[…] at Ser-9 ([1]; striatum, versus DMSO-injected hemisphere): specific reduction
- inhibitory effect toward AKT, individual library peptides [2]: significant inhibitory effects

Substance: labeled ZaTa: ZaTa peptide labeled with a red fluorescent dye at its N-terminus ({red fluorescent dye}-AKRVKGRTWTLCGTPEY; reading uncertain)
- phosphorylation level of AKT substrates in ZaTa-positive cells ([1]; stereotactic injection into frontal cortex): specific reduction in phosphorylation level of AKT substrates
